Test results: PMC9036627, “Global update on the susceptibility of human influenza viruses to neuraminidase inhibitors, 2013–2014” (Antiviral research, 2015)

Columns and labels:
[1] = system: neuraminidase (NA) of B/Victoria-lineage viruses; type: biochemical, influenza B/Victoria-lineage virus
[2] = system: neuraminidase (NA) of A(H1N1)pdm09 viruses; type: biochemical, influenza A(H1N1)pdm09 virus
[3] = system: neuraminidase (NA) of B/Yamagata-lineage viruses; type: biochemical, influenza B/Yamagata-lineage virus
[4] = system: former seasonal A(H1N1) H275Y virus; conditions: ref Kawai et al., 2009, Dharan et al., 2010, Matsuzaki et al., Saito et al.; cited from earlier work
[5] = system: former seasonal A(H1N1) H275Y virus; conditions: ref Kawai et al., 2009, Dharan et al., 2010, Matsuzaki et al., Saito et al.; cited from earlier work; remark: listed apart in the source

[H]/N=C(\N)N[C@H]1C=C(C(=O)O)O[C@@H]([C@H](OC)[C@H](O)CO)[C@@H]1NC(C)=O [Laninamivir, laninamivir]
inhibition category (HRI/RI/NI) [1]: HRI (key: NI < 5-fold; RI 5 to 50-fold; HRI > 50-fold)
Included in phenotypic analysis: inhibition category (HRI/RI/NI) [2]: RI (key: NI < 10-fold; RI 10 to 100-fold; HRI > 100-fold)
effect of NA substitution on susceptibility [2]: little or no effect
effect of NA substitution on susceptibility [3]: no effect

CCOC(=O)C1=C[C@@H](OC(CC)CC)[C@H](NC(C)=O)[C@@H](N)C1 [Oseltamivir, oseltamivir]
inhibition category (HRI/RI/NI) [1]: RI (key: NI < 5-fold; RI 5 to 50-fold; HRI > 50-fold)
clinical resistance [4]: clinically resistant
inhibition category in vitro [5]: HRI (HRI > 100-fold)
inhibition category (HRI/RI/NI) [3]: RI (key: NI < 5-fold; RI 5 to 50-fold; HRI > 50-fold)

CCC(CC)[C@H](NC(C)=O)[C@@H]1[C@H](O)[C@@H](C(=O)O)C[C@H]1N=C(N)N [Peramivir, peramivir]
inhibition category (HRI/RI/NI) [1]: HRI (key: NI < 5-fold; RI 5 to 50-fold; HRI > 50-fold)
inhibition category in vitro [5]: HRI (HRI > 100-fold)

CC(=O)N[C@H]1[C@H]([C@H](O)[C@H](O)CO)OC(C(=O)O)=C[C@@H]1N=C(N)N [Zanamivir, zanamivir]
inhibition category (HRI/RI/NI) [1]: HRI (key: NI < 5-fold; RI 5 to 50-fold; HRI > 50-fold)
effect of NA substitution on susceptibility [2]: little or no effect
effect of NA substitution on susceptibility [3]: no effect
